# Results reported in the supplement of paper PMC12076712.
# Experiments:
# Assay in all cases: pIC50, kinobeads binding competition
# TESK1 = TESK1 (UniProt Q15569)
# Method in brief: (§1)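 To obtain pIC50, fold changes versus vehicle were fitted to logistic dose-response curves (R drc package) across biological duplicates. Protein binding to Kinobeads was quantified by TMT10 LC-MS/MS of digested bead-bound proteins. Treatments used nine concentrations with a top of 30 μM, applied to live Jurkat cells in 1:4 steps for 60 min at 37 °C before lysis, or to Jurkat lysate or a 1:1:1:1 HEK293/K-562/HepG2/placenta lysate mix in 1:5 steps for 60 min at 4 °C.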
# DDR1 = DDR1 (UniProt Q08345)
# Chain of DDR1 (Q08345 whole entry): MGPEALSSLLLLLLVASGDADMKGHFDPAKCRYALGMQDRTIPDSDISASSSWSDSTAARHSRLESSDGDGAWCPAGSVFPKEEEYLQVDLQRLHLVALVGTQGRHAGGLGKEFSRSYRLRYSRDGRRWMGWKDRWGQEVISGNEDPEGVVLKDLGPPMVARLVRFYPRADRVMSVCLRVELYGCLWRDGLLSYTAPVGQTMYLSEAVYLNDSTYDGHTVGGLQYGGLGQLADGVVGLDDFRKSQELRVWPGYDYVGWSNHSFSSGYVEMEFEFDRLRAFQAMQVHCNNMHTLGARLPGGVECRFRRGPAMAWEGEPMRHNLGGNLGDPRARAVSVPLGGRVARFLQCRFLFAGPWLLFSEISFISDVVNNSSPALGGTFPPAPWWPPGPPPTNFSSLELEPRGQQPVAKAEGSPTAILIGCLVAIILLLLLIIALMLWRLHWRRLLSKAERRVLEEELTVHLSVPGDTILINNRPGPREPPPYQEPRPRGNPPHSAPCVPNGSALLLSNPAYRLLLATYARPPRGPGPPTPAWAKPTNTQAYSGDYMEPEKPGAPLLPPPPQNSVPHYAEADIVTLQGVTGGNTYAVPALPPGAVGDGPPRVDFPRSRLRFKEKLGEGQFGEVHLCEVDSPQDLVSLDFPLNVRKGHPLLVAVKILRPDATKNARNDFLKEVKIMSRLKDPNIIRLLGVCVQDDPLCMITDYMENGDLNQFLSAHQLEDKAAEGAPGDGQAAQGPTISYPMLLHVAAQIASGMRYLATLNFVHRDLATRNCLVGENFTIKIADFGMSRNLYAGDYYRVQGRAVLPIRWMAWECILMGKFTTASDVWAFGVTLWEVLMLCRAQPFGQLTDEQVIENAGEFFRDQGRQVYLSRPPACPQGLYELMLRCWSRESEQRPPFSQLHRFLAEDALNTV
# Method in brief: as §1
# Fyn = Fyn (UniProt P06241)
# Method in brief: as §1
# MAPK14 = MAPK14 (UniProt Q16539)
# Chain of MAPK14 (Q16539 whole entry): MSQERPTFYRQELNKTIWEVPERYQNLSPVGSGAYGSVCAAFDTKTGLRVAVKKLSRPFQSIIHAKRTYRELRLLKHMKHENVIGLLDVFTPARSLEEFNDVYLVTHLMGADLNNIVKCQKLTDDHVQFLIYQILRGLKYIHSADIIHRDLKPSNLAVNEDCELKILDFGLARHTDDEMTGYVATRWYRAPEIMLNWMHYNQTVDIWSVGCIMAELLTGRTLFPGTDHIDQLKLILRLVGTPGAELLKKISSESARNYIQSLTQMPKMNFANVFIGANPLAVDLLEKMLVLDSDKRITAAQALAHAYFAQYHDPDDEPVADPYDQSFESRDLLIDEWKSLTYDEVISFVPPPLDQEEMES
# Method in brief: as §1
# MAP4K2 = molecular target: T1, MAP4K2 (UniProt Q12851)
# T1 sequence (whole entry): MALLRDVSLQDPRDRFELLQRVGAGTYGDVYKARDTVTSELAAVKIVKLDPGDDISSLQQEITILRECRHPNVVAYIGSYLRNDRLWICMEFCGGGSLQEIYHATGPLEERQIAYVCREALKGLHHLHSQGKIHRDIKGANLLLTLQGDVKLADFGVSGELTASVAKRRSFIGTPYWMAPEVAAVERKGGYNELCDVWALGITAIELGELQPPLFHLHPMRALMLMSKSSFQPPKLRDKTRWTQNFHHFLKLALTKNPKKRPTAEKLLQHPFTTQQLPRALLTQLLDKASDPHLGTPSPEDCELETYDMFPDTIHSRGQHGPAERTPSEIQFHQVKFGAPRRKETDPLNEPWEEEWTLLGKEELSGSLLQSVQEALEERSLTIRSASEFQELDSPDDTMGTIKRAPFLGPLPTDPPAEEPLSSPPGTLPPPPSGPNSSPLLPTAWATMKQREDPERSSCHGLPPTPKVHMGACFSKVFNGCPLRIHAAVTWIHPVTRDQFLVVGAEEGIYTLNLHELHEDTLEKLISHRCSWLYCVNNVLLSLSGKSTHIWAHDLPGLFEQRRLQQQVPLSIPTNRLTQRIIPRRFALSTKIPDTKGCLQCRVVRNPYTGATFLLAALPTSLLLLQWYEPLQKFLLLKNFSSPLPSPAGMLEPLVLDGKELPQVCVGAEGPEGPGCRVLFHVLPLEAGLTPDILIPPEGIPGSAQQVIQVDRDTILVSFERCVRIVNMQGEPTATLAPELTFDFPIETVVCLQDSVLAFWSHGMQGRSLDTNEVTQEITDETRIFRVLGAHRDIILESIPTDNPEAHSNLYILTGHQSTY
# Method in brief: as §1
# UniProt P48730 = molecular target: UniProt P48730
# Chain of UniProt P48730 (P48730 whole entry, looked up): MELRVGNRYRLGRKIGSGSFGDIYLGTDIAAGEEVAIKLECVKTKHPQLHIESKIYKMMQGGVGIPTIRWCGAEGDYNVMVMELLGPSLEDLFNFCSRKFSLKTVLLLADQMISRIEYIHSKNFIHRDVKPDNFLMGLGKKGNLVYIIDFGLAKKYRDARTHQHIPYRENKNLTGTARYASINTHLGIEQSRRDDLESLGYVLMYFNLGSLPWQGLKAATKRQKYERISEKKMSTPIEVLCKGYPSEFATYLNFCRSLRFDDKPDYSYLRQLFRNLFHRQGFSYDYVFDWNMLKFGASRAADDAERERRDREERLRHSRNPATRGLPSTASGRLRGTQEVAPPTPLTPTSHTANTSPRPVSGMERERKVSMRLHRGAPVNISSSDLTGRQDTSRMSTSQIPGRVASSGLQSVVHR
# Method in brief: as §1
# EPHA4 = EPHA4 (UniProt P54764); conditions: cell material: Lysate mix
# Chain of EPHA4 (P54764 whole entry): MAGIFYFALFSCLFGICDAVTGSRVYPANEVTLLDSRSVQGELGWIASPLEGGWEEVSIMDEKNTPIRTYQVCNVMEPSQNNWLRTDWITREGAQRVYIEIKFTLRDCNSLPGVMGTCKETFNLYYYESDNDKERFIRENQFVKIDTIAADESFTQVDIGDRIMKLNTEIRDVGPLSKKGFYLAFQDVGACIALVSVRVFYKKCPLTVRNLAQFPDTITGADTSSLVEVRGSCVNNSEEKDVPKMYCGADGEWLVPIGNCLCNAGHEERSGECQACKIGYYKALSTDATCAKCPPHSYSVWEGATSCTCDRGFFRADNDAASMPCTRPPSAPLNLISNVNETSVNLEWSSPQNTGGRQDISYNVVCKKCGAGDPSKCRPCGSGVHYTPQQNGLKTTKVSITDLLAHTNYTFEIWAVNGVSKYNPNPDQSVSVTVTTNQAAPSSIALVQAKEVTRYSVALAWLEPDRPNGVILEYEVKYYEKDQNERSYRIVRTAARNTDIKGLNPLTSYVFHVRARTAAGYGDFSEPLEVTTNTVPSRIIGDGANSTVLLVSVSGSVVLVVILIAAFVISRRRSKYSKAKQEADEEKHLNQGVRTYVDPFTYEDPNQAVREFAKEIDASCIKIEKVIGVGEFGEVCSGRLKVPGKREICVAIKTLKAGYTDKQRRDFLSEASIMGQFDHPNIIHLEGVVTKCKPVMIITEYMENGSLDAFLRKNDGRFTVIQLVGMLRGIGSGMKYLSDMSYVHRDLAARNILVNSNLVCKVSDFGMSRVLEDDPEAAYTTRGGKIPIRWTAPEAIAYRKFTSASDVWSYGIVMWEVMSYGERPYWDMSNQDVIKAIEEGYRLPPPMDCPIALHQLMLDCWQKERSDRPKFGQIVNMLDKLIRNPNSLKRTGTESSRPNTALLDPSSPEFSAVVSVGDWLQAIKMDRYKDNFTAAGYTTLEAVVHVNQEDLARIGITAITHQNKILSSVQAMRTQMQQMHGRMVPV
# Method in brief: as §1
# PKN3 = PKN3 (UniProt Q6P5Z2); conditions: cell material: Lysate mix
# Method in brief: as §1
# UniProt Q15139 = molecular target: T2, UniProt Q15139; conditions: cell material: Lysate mix
# T2 sequence (whole entry): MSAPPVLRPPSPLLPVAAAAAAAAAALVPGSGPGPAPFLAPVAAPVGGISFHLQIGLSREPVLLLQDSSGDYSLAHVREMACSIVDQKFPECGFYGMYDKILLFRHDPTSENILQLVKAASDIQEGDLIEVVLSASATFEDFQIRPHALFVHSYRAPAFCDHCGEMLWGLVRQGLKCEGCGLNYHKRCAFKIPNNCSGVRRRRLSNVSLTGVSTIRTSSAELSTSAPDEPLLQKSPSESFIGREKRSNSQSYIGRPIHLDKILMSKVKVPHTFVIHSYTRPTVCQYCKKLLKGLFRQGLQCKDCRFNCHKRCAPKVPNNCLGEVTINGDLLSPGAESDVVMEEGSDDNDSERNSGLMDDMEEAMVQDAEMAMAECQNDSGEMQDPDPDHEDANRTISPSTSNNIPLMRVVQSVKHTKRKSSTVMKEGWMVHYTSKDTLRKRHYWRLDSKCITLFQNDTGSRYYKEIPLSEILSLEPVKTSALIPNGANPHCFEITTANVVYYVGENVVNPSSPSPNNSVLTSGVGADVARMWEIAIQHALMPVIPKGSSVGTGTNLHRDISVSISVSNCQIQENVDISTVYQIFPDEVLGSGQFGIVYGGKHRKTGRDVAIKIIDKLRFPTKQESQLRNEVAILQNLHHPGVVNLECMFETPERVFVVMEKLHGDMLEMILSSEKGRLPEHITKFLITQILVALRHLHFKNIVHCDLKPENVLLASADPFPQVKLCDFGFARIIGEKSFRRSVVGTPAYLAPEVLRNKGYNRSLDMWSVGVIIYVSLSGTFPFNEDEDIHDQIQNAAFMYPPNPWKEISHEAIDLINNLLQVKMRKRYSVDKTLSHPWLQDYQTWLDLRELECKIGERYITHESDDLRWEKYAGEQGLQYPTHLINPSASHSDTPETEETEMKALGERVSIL
# Method in brief: as §1
# UniProt Q9Y2I7 = molecular target: UniProt Q9Y2I7
# Chain of UniProt Q9Y2I7 (Q9Y2I7 whole entry): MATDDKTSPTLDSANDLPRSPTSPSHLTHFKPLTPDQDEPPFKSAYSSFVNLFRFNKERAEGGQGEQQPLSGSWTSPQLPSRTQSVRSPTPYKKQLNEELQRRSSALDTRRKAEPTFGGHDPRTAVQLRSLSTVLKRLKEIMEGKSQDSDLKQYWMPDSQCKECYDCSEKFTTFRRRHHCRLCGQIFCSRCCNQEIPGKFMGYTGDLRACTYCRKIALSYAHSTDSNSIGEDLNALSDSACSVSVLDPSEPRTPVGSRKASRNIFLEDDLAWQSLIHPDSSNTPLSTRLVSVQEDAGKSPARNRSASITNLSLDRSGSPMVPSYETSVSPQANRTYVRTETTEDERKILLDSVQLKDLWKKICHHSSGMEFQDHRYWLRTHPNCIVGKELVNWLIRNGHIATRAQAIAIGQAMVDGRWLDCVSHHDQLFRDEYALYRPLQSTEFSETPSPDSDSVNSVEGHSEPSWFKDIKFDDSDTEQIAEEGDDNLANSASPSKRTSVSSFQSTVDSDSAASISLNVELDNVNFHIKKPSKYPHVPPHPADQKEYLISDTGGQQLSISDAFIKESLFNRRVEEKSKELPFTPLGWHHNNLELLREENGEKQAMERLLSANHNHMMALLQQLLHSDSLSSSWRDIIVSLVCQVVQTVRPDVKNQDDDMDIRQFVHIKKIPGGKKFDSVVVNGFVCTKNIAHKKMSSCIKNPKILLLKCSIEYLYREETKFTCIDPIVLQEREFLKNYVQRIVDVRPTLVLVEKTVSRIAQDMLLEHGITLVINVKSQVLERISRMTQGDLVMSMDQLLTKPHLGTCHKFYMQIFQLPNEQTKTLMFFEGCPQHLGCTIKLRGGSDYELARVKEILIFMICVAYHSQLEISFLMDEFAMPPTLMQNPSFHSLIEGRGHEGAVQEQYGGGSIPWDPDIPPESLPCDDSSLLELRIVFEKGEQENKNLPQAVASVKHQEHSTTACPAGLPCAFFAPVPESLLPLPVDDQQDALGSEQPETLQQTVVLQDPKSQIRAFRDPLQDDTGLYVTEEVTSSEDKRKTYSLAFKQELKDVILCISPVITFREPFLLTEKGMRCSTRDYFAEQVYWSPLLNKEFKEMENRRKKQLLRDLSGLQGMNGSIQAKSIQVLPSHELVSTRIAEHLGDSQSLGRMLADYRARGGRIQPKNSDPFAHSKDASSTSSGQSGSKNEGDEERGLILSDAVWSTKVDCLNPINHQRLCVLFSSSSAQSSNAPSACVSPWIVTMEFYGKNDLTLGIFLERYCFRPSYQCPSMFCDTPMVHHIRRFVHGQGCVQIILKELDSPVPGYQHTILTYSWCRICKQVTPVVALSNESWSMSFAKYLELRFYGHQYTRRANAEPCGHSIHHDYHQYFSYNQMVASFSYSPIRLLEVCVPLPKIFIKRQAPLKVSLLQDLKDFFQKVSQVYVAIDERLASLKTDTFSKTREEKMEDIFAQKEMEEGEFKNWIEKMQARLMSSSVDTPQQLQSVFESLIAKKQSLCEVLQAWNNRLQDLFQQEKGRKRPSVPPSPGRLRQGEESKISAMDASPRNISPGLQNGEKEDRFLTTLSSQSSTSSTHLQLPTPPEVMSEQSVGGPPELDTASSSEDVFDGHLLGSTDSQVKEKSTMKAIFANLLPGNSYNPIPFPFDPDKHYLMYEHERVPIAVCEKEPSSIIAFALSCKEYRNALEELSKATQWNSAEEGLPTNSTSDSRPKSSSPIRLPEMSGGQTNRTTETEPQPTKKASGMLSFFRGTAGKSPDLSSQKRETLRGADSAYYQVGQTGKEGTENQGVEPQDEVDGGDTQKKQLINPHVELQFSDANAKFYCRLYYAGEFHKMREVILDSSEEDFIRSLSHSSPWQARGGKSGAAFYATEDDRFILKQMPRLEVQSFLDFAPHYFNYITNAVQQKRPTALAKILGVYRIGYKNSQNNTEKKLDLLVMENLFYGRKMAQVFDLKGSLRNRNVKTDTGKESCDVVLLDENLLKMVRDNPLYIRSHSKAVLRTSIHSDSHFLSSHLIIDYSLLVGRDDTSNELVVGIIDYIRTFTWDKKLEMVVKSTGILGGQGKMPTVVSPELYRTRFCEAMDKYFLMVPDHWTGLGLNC
# Method in brief: as §1
SMILES,pIC50 (TESK1; cell material: Jurkat cells),pIC50 (TESK1; cell material: Lysate mix),pIC50 (DDR1; cell material: Lysate mix),pIC50 (Fyn; cell material: Jurkat lysate),pIC50 (Fyn; cell material: Lysate mix),pIC50 (MAPK14; cell material: Lysate mix),pIC50 (MAP4K2; cell material: Lysate mix),pIC50 (UniProt P48730; cell material: Jurkat cells),pIC50 (UniProt P48730; cell material: Lysate mix),pIC50 (EPHA4),pIC50 (PKN3),pIC50 (UniProt Q15139),pIC50 (UniProt Q9Y2I7; cell material: Lysate mix),pIC50 (TESK1; cell material: Jurkat lysate),pIC50 (DDR1; cell material: Jurkat cells),pIC50 (DDR1; cell material: Jurkat lysate),pIC50 (Fyn; cell material: Jurkat cells),pIC50 (MAPK14; cell material: Jurkat cells),pIC50 (MAPK14; cell material: Jurkat lysate),pIC50 (MAP4K2; cell material: Jurkat cells),pIC50 (MAP4K2; cell material: Jurkat lysate),pIC50 (UniProt P48730; cell material: Jurkat lysate),pIC50 (UniProt Q9Y2I7; cell material: Jurkat cells),pIC50 (UniProt Q9Y2I7; cell material: Jurkat lysate)
O=C(NCCNC(=O)c1cc(Nc2cc(C3CC3)[nH]n2)nc(N2CCN(Cc3ccc(S(=O)(=O)F)cc3)CC2)n1)OC1CC/C=C/CCC1 (stereo not given),< 4.52,< 4.52,< 4.52,< 4.52,< 4.52,< 4.52,< 4.52,< 4.52,< 4.52,< 4.52,< 4.52,< 4.52,< 4.52,< 4.52,< 4.52,< 4.52,5.1,< 4.52,< 4.52,5.33,< 4.52,< 4.52,< 4.52,< 4.52
Cc1cc(Nc2cc(C(=O)NCCNC(=O)OC3CC/C=C/CCC3)nc(N3CCN(Cc4ccc(S(=O)(=O)F)cc4)CC3)n2)n[nH]1 (stereo not given),–,< 4.52,< 4.52,–,4.58,< 4.52,< 4.52,–,< 4.52,< 4.52,< 4.52,< 4.52,< 4.52,–,–,–,–,–,–,–,–,–,–,–
CCNC(=O)c1cc(Nc2cc(C)[nH]n2)nc(N2CCN(Cc3ccc(S(=O)(=O)F)cc3)CC2)n1,–,< 4.52,< 4.52,–,6.74,< 4.52,4.7,–,< 4.52,< 4.52,< 4.52,< 4.52,< 4.52,–,–,–,–,–,–,–,–,–,–,–
C#CCNC(=O)c1cc(Nc2cc(C3CC3)[nH]n2)nc(N2CCN(Cc3ccc(S(=O)(=O)F)cc3)CC2)n1,–,< 4.52,< 4.52,–,5.9,< 4.52,5.36,–,< 4.52,< 4.52,< 4.52,< 4.52,< 4.52,< 4.52,5.54,< 4.52,5.9,< 4.52,< 4.52,5.92,4.56,< 4.52,5.27,< 4.52

# Now from value to compound, other results behind:
pIC50 (TESK1; cell material: Jurkat cells),pIC50 (TESK1; cell material: Lysate mix),pIC50 (DDR1; cell material: Lysate mix),pIC50 (Fyn; cell material: Jurkat lysate),pIC50 (Fyn; cell material: Lysate mix),pIC50 (MAPK14; cell material: Lysate mix),pIC50 (MAP4K2; cell material: Lysate mix),pIC50 (UniProt P48730; cell material: Jurkat cells),pIC50 (UniProt P48730; cell material: Lysate mix),pIC50 (EPHA4),pIC50 (PKN3),pIC50 (UniProt Q15139),pIC50 (UniProt Q9Y2I7; cell material: Lysate mix),SMILES,pIC50 (TESK1; cell material: Jurkat lysate),pIC50 (DDR1; cell material: Jurkat cells),pIC50 (DDR1; cell material: Jurkat lysate),pIC50 (Fyn; cell material: Jurkat cells),pIC50 (MAPK14; cell material: Jurkat cells),pIC50 (MAPK14; cell material: Jurkat lysate),pIC50 (MAP4K2; cell material: Jurkat cells),pIC50 (MAP4K2; cell material: Jurkat lysate),pIC50 (UniProt P48730; cell material: Jurkat lysate),pIC50 (UniProt Q9Y2I7; cell material: Jurkat cells),pIC50 (UniProt Q9Y2I7; cell material: Jurkat lysate)
–,< 4.52,< 4.52,–,5.81,< 4.52,4.88,–,< 4.52,< 4.52,< 4.52,< 4.52,< 4.52,CCNC(=O)c1cc(Nc2cc(C3CC3)[nH]n2)nc(N2CCN(Cc3ccc(S(=O)(=O)F)cc3)CC2)n1,–,–,–,–,–,–,–,–,–,–,–
–,< 4.52,< 4.52,–,5.93,< 4.52,4.81,–,< 4.52,< 4.52,< 4.52,< 4.52,< 4.52,C#CCNC(=O)c1cc(Nc2cc(C)[nH]n2)nc(N2CCN(Cc3ccc(S(=O)(=O)F)cc3)CC2)n1,–,–,–,–,–,–,–,–,–,–,–
